# Assay results reported in patent publication US5843889A, “Glycopeptide antibiotic derivatives” (Eli Lilly and Company, priority 1997, dated 1998).
# Columns and labels:
# Test in all cases: MIC, standard broth micro-dilution assay
# Type in all cases: cell-based
# [1] = system: Entercoccus gallinarum 245
# Procedure: (§1) The formula I compounds have in vitro and in vivo activity against Gram-positive pathogenic bacteria. The MIC's were determined using a standard broth micro-dilution assay.
# [2] = system: Entercoccus faecalis 2041
# Procedure: as §1
# [3] = system: Entercoccus faecalis 276
# Procedure: as §1
SMILES,MIC [1] [µg/mL],MIC [2] [µg/mL],MIC [3] [µg/mL]
"CNC(CC(C)C)C(=O)NC1C(=O)NC(CC(N)=O)C(=O)NC2C(=O)NC3C(=O)NC(C(=O)NC(C(=O)O)c4cc(O)cc(O)c4-c4cc3ccc4O)C(OC3CC(C)(N)C(O)C(C)O3)c3ccc(c(Cl)c3)Oc3cc2cc(c3OC2OC(CO)C(O)C(O)C2OC2CC(C)(NCc3c4ccccc4c(C)c4ccccc34)C(O)C(C)O2)Oc2ccc(cc2Cl)C1O (stereo not drawn) [Compound 17, 9-[10-methyl]anthranylmethyl]",0.5,0.25,0.5
"C=CCOc1ccc(CNC2(C)CC(OC3C(Oc4c5cc6cc4Oc4ccc(cc4Cl)C(OC4CC(C)(N)C(O)C(C)O4)C4NC(=O)C(NC(=O)C6NC(=O)C(CC(N)=O)NC(=O)C(NC(=O)C(CC(C)C)NC)C(O)c6ccc(c(Cl)c6)O5)c5ccc(O)c(c5)-c5c(O)cc(O)cc5C(C(=O)O)NC4=O)OC(CO)C(O)C3O)OC(C)C2O)cc1 (stereo not drawn) [Compound 7, 4-allyloxybenzyl]",0.5,0.125,1
"CCCCCCCCCOc1ccc(CNC2(C)CC(OC3C(Oc4c5cc6cc4Oc4ccc(cc4Cl)C(OC4CC(C)(N)C(O)C(C)O4)C4NC(=O)C(NC(=O)C6NC(=O)C(CC(N)=O)NC(=O)C(NC(=O)C(CC(C)C)NC)C(O)c6ccc(c(Cl)c6)O5)c5ccc(O)c(c5)-c5c(O)cc(O)cc5C(C(=O)O)NC4=O)OC(CO)C(O)C3O)OC(C)C2O)cc1 (stereo not drawn) [Compound 8, 4-nonyloxybenzyl]",8,4,4
"CNC(CC(C)C)C(=O)NC1C(=O)NC(CC(N)=O)C(=O)NC2C(=O)NC3C(=O)NC(C(=O)NC(C(=O)O)c4cc(O)cc(O)c4-c4cc3ccc4O)C(OC3CC(C)(N)C(O)C(C)O3)c3ccc(c(Cl)c3)Oc3cc2cc(c3OC2OC(CO)C(O)C(O)C2OC2CC(C)(NCc3cccnc3)C(O)C(C)O2)Oc2ccc(cc2Cl)C1O (stereo not drawn) [Compound 24, 3-pyridylmethyl]",0.25,≤ 0.06,0.25
"CNC(CC(C)C)C(=O)NC1C(=O)NC(CC(N)=O)C(=O)NC2C(=O)NC3C(=O)NC(C(=O)NC(C(=O)O)c4cc(O)cc(O)c4-c4cc3ccc4O)C(OC3CC(C)(N)C(O)C(C)O3)c3ccc(c(Cl)c3)Oc3cc2cc(c3OC2OC(CO)C(O)C(O)C2OC2CC(C)(NCc3ccc(-c4ccc(Br)cc4)cc3)C(O)C(C)O2)Oc2ccc(cc2Cl)C1O (stereo not drawn) [Compound 230, 4-[4-bromophenyl]benzyl]",2,≤ 0.06,≤ 0.06
"CN[C@@H](CC(C)C)C(=O)N[C@H]1C(=O)N[C@H](CC(N)=O)C(=O)N[C@H]2C(=O)N[C@H]3C(=O)N[C@@H](C(=O)NC(C(=O)O)c4cc(O)cc(O)c4-c4cc3ccc4O)[C@@H](O[C@H]3C[C@](C)(N)[C@H](O)[C@@H](C)O3)c3ccc(cc3)Oc3cc2cc(c3O[C@H]2O[C@@H](CO)[C@@H](O)[C@H](O)[C@@H]2O[C@H]2C[C@](C)(N)[C@H](O)[C@@H](C)O2)Oc2ccc(cc2)[C@@H]1O (stereo partly drawn) [Compound A82846C, A82846C, reference compound]",0.5,0.5,0.5
"CNC(CC(C)C)C(=O)NC1C(=O)NC(CC(N)=O)C(=O)NC2C(=O)NC3C(=O)NC(C(=O)NC(C(=O)O)c4cc(O)cc(O)c4-c4cc3ccc4O)C(OC3CC(C)(N)C(O)C(C)O3)c3ccc(c(Cl)c3)Oc3cc2cc(c3OC2OC(CO)C(O)C(O)C2OC2CC(C)(NCC3CCC(c4ccccc4)C3)C(O)C(C)O2)Oc2ccc(cc2Cl)C1O (stereo not drawn) [Compound 140, 3-phenylcyclopentylmethyl]",8,≤ 0.06,0.5
"CNC(CC(C)C)C(=O)NC1C(=O)NC(CC(N)=O)C(=O)NC2C(=O)NC3C(=O)NC(C(=O)NC(C(=O)O)c4cc(O)cc(O)c4-c4cc3ccc4O)C(OC3CC(C)(N)C(O)C(C)O3)c3ccc(c(Cl)c3)Oc3cc2cc(c3OC2OC(CO)C(O)C(O)C2OC2CC(C)(NCc3ccc(C)c(C)c3)C(O)C(C)O2)Oc2ccc(cc2Cl)C1O (stereo not drawn) [Compound 76, 3,4-dimethylbenzyl]",4,≤ 0.06,≤ 0.06
CNC(CC(C)C)C(=O)NC1C(=O)NC(CC(N)=O)C(=O)NC2C(=O)NC3C(=O)NC(C(=O)NC(C(=O)O)c4cc(O)cc(O)c4-c4cc3ccc4O)C(OC3CC(C)(N)C(O)C(C)O3)c3ccc(c(Cl)c3)Oc3cc2cc(c3OC2OC(CO)C(O)C(O)C2OC2CC(C)(NCc3cccc(Oc4ccc(Cl)cc4)c3)C(O)C(C)O2)Oc2ccc(cc2Cl)C1O (stereo not drawn) [Compound 86],1,≤ 0.06,≤ 0.06
"CNC(CC(C)C)C(=O)NC1C(=O)NC(CC(N)=O)C(=O)NC2C(=O)NC3C(=O)NC(C(=O)NC(C(=O)O)c4cc(O)cc(O)c4-c4cc3ccc4O)C(OC3CC(C)(N)C(O)C(C)O3)c3ccc(c(Cl)c3)Oc3cc2cc(c3OC2OC(CO)C(O)C(O)C2OC2CC(C)(NCc3ccc(N(C)c4ccccc4)cc3)C(O)C(C)O2)Oc2ccc(cc2Cl)C1O (stereo not drawn) [Compound 178, 4-[N-methylanilino]benzyl]",2,≤ 0.06,0.5
"CNC(CC(C)C)C(=O)NC1C(=O)NC(CC(N)=O)C(=O)NC2C(=O)NC3C(=O)NC(C(=O)NC(C(=O)O)c4cc(O)cc(O)c4-c4cc3ccc4O)C(OC3CC(C)(N)C(O)C(C)O3)c3ccc(c(Cl)c3)Oc3cc2cc(c3OC2OC(CO)C(O)C(O)C2OC2CC(C)(NCc3ccc(Cc4ccccc4)c(OC)c3)C(O)C(C)O2)Oc2ccc(cc2Cl)C1O (stereo not drawn) [Compound 104, 4-benzyl-3-methoxybenzyl]",2,≤ 0.06,≤ 0.06
"CNC(CC(C)C)C(=O)NC1C(=O)NC(CC(N)=O)C(=O)NC2C(=O)NC3C(=O)NC(C(=O)NC(C(=O)O)c4cc(O)cc(O)c4-c4cc3ccc4O)C(OC3CC(C)(N)C(O)C(C)O3)c3ccc(c(Cl)c3)Oc3cc2cc(c3OC2OC(CO)C(O)C(O)C2OC2CC(C)(NCCCCC3CCCCC3)C(O)C(C)O2)Oc2ccc(cc2Cl)C1O (stereo not drawn) [Compound 205, 4-cyclohexylbutyl]",1,0.25,0.5
"CNC(CC(C)C)C(=O)NC1C(=O)NC(CC(N)=O)C(=O)NC2C(=O)NC3C(=O)NC(C(=O)NC(C(=O)O)c4cc(O)cc(O)c4-c4cc3ccc4O)C(OC3CC(C)(N)C(O)C(C)O3)c3ccc(c(Cl)c3)Oc3cc2cc(c3OC2OC(CO)C(O)C(O)C2OC2CC(C)(NCc3ccc(OCCC4CCCCC4)cc3)C(O)C(C)O2)Oc2ccc(cc2Cl)C1O (stereo not drawn) [Compound 127, 4-[cyclohexylethoxy]benzyl]",4,≤ 0.06,≤ 0.06
"CNC(CC(C)C)C(=O)NC1C(=O)NC(CC(N)=O)C(=O)NC2C(=O)NC3C(=O)NC(C(=O)NC(C(=O)O)c4cc(O)cc(O)c4-c4cc3ccc4O)C(OC3CC(C)(N)C(O)C(C)O3)c3ccc(c(Cl)c3)Oc3cc2cc(c3OC2OC(CO)C(O)C(O)C2OC2CC(C)(NCc3ccc(-c4ccccc4[N+](=O)[O-])cc3)C(O)C(C)O2)Oc2ccc(cc2Cl)C1O (stereo not drawn) [Compound 102, 4-[2-nitrophenyl]benzyl]",4,≤ 0.06,0.25
"CNC(CC(C)C)C(=O)NC1C(=O)NC(CC(N)=O)C(=O)NC2C(=O)NC3C(=O)NC(C(=O)NC(C(=O)O)c4cc(O)cc(O)c4-c4cc3ccc4O)C(OC3CC(C)(N)C(O)C(C)O3)c3ccc(cc3)Oc3cc2cc(c3OC2OC(CO)C(O)C(O)C2OC2CC(C)(NCc3ccc(-c4ccccc4)cc3)C(O)C(C)O2)Oc2ccc(cc2Cl)C1O (stereo not drawn) [Compound 182, 4-phenylbenzyl]",1,1,1
CNC(CC(C)C)C(=O)NC1C(=O)NC(CC(N)=O)C(=O)NC2C(=O)NC3C(=O)NC(C(=O)NC(C(=O)O)c4cc(O)cc(O)c4-c4cc3ccc4O)C(OC3CC(C)(N)C(O)C(C)O3)c3ccc(c(Cl)c3)Oc3cc2cc(c3OC2OC(CO)C(O)C(O)C2OC2CC(C)(NCc3cccc(Oc4cccc(C(F)(F)F)c4)c3)C(O)C(C)O2)Oc2ccc(cc2Cl)C1O (stereo not drawn) [Compound 203],2,0.25,0.5
"CNC(CC(C)C)C(=O)NC1C(=O)NC(CC(N)=O)C(=O)NC2C(=O)NC3C(=O)NC(C(=O)NC(C(=O)O)c4cc(O)cc(O)c4-c4cc3ccc4O)C(OC3CC(C)(N)C(O)C(C)O3)c3ccc(c(Cl)c3)Oc3cc2cc(c3OC2OC(CO)C(O)C(O)C2OC2CC(C)(NCc3ccc4ccc5cccc6ccc3c4c56)C(O)C(C)O2)Oc2ccc(cc2Cl)C1O (stereo not drawn) [Compound 16, 1-pyrenylmethyl]",1,0.5,2
"CNC(CC(C)C)C(=O)NC1C(=O)NC(CC(N)=O)C(=O)NC2C(=O)NC3C(=O)NC(C(=O)NC(C(=O)O)c4cc(O)cc(O)c4-c4cc3ccc4O)C(OC3CC(C)(N)C(O)C(C)O3)c3ccc(c(Cl)c3)Oc3cc2cc(c3OC2OC(CO)C(O)C(O)C2OC2CC(C)(NCCCCCCCCCCCCc3ccccc3)C(O)C(C)O2)Oc2ccc(cc2Cl)C1O (stereo not drawn) [Compound 234, 12-phenyldodecyl]",16,0.5,4
"CNC(CC(C)C)C(=O)NC1C(=O)NC(CC(N)=O)C(=O)NC2C(=O)NC3C(=O)NC(C(=O)NC(C(=O)O)c4cc(O)cc(O)c4-c4cc3ccc4O)C(OC3CC(C)(N)C(O)C(C)O3)c3ccc(c(Cl)c3)Oc3cc2cc(c3OC2OC(CO)C(O)C(O)C2OC2CC(C)(NCc3cccc(OC(C)=O)c3)C(O)C(C)O2)Oc2ccc(cc2Cl)C1O (stereo not drawn) [Compound 77, 3-acetoxybenzyl]",0.25,0.25,0.25
"CNC(CC(C)C)C(=O)NC1C(=O)NC(CC(N)=O)C(=O)NC2C(=O)NC3C(=O)NC(C(=O)NC(C(=O)O)c4cc(O)cc(O)c4-c4cc3ccc4O)C(OC3CC(C)(N)C(O)C(C)O3)c3ccc(c(Cl)c3)Oc3cc2cc(c3OC2OC(CO)C(O)C(O)C2OC2CC(C)(NCc3ccc(OC(F)(F)C(F)F)cc3)C(O)C(C)O2)Oc2ccc(cc2Cl)C1O (stereo not drawn) [Compound 121, 4-[1,1,2,2-tetrafluoroethoxy]benzyl]",2,≤ 0.06,≤ 0.06
